Experimental data reported in patent US20110129504A1, “COMPOSITION FOR CONTROLLING LIPASE CATALYZED REACTIONS” (NESTEC S.A., priority 2007, published 2011).

Columns and labels:
Rhizomucor miehei lipase [1] = target: T1, Rhizomucor miehei lipase (Rhizomucor miehei, UniProt P19515); assay: Biphasic decane/buffer system: lipolytic hydrolysis of tricaprylin; format: biochemical; settings: monoglyceride 1,3 E-3M in decane, 20 ul tricaprylin, phosphate buffer pH 5.5, 3,3 E-6 M lipase; vs no surfactant; GC-FID
Experimental: (§1) A biphasic system was prepared in glass test tubes with the following composition: • Upper oil phase is composed of 7 ml decane in the absence (control) or presence of (1,3 E-3M) monoglyceride and 20 ul tricaprylin or p-nitrophenypalmitate (2E-4M) • Aqueous phase is composed of 2 ml phosphate buffer, pH 5.5 containing 3,3 E-6 M Rhizomucor miehei lipase. The caprylic acid generation in the presence and absence of monoglycerides (surfactant) is monitored by GC-FID. 100 ul of the upper oil phase are taken and added to 900 ul Chloroform before direct injection into the GC. The nitrophenol generation is followed by spectroscopic analysis at 410 nm of the aqueous phase. FIGS. 7 and 8 show the amount of caprylic acid formed after the lipolytic hydrolysis of the p-nitropheylpalmitate and tricaprylin in the presence of Sn1 (hydrolysable surfactants) or Sn2 (non-hydrolysable) monoglycerides. […] This is an indication that with the used monoglyceride concentration (the concentration was constant at 1.3 E-3 M) not enough surfactant is adsorbing to the water-oil interface, since the Sn2M20:4 is too lipohilic and partitions more into the bulk oil than to the interface.

Rhizomucor miehei lipase [2] = target: T1, Rhizomucor miehei lipase; assay: Biphasic decane/buffer system: lipolytic hydrolysis of p-nitrophenylpalmitate; format: biochemical; settings: monoglyceride 1.3 E-3 M in decane, p-nitrophenylpalmitate 2E-4M, phosphate buffer pH 5.5, 3,3 E-6 M lipase; 410 nm; vs reference without surfactant
Experimental: as §1

lipase = assay: TIM gastro-intestinal model (TNO) digestion of Tricaprylin emulsion; format: biochemical
Experimental: 8 ml Tricaprylin containing 2.0 g Sn2-Monopalmitin (non-cleavable surfactant) was mixed with 200 ml phosphate buffer pH 5.5 and 20 mg/ml starch (emulsifier) using an Ultra Turrax for 2 minutes, and subsequent sonification for 10 minutes. The reference emulsion system contains the same amount of tricaprylin and starch, however, no Sn2-monopalmitin. Model digestion runs of the 2 samples were performed using a gastro-intestinal model system provided by TNO. Physiological conditions (e.g. temperature, enzyme type and load, bile salt concentration, pH) were predefined via the TIM programming system. The hydrolysis of Tricaprylin was followed by monitoring the caprylic acid release after passing the different gastro-intestinal compartments. […] The extraction of the generated fatty acids after passing the different compartments was performed by taking 100 ul of the reaction mixture, adding 900 ul chloroform together with 100 ul Chloridric acid 1M. The samples were vortexed and centrifuged at 5000 rpm for 10 min. 500 ul of the supernatant was taken and directly injected into a GC-FID. 3 samples were analysed for each reaction time at each gastro-intestinal compartment.
Additional experiments were performed where sn-2 monopalmitin was replaced Lysophosphotidilcholine (LysoPC). The effect of LysoPC on fat gastric digestion were studied.

[3] = Pendant drop interfacial tension at buffer/decane interface; format: physicochemical
Source text: The interfacial tension of pure Tricaprylin (free of any residues of polar lipids), should remain above 30 mN/m. Therefore, a more interfacial active molecule (like monocaprylin), has the capacity to exclude the triglyceride from the interface.

T1 sequence (P19515 95-363): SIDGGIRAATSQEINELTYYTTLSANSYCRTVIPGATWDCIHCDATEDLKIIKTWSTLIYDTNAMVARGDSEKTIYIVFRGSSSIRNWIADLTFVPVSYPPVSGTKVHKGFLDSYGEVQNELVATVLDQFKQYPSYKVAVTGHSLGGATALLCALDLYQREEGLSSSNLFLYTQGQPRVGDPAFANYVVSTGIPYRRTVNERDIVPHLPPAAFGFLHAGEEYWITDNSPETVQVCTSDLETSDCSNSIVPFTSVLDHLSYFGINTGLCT

Molecule	kinetics of lipolytic caprylic acid formation from tricaprylin (Rhizomucor miehei lipase [1])	kinetics of nitrophenol formation from p-nitrophenylpalmitate (Rhizomucor miehei lipase [2])	further results
CCCCCCCCCCCC(=O)OC(CO)CO [Sn2-M12]	reduced	significant reduction	
CCCCCCCCCCCC(=O)OCC(O)CO (centres unmarked) [Sn1 M12]		quite similar to the observations made in the reference system	
CCCCCCCC(=O)OC(CO)CO [Sn2-M8]	reduced	significant reduction	
CCCCCCCC(=O)OCC(O)CO (centres unmarked) [Sn1 M8]		quite similar to the observations made in the reference system	
CCCCCCCCCCCCCCCC(=O)OCC(O)CO (centres unmarked) [Sn1-M16]		quite similar to the observations made in the reference system	
CCCCCCCCCCCCCCCC(=O)OC(CO)CO [Sn2-M16, Sn-2 Monopalmitin]	reduced	significant reduction	Caprylic acid (C8) detected after passing through the ileum and jejunum (lipase; 8 ml Tricaprylin containing 2.0 g surfactant, phosphate buffer pH 5.5, starch emulsifier, vs reference emulsion without surfactant, GC-FID, FIG. 2): almost no caprylic acid is detected; caprylic acid content in the lumen of the stomach, duodenum, jejunum and in the efflux (lipase; compared with the ileum/jejunum result (almost no caprylic acid), FIGS. 3, 4 and 5): A similar result is obtained
CCCCCCCCCCCCCCCCCCCC(=O)OC(CO)CO [monoarachidin, Sn-2 monoarachidin]			interfacial tension between the buffer and the decane solution ([3]; as a function of titrated (added) surfactant, FIG. 8): induces a decrease of the measured interfacial tension
CCCCCCCC(=O)OCC(O)CO (centres unmarked) [monocaprylin]			interfacial activity compared with caprylic acid (C8) and dicaprylin (DC8) ([3]; buffer/decane interface, FIG. 9): considerably more interfacially active
Lysophosphotidilcholine [LysoPC]			gastric lipolysis of triglycerides (lipase; sn-2 monopalmitin replaced by LysoPC, lumen of stomach, FIG. 3): considerable effect in decreasing gastric lipolysis
